Results published in ChEMBL document CHEMBL1641371, “Peptide deformylase inhibitors with non-peptide scaffold: synthesis and structure-activity relationships” (Bioorg Med Chem Lett, 2011).
Converted amounts (≈) assume the structure as drawn.

Experiments:
[1] = molecular target: T1, Peptide deformylase (Pseudomonas aeruginosa (strain ATCC 15692 / PAO1 / 1C / PRS 101 / LMG12228), UniProt Q9I7A8); experiment: Inhibition of Pseudomonas aeruginosa peptide deformylase after 10 mins by fluorescence assay
T1 sequence (Q9I7A8 whole entry): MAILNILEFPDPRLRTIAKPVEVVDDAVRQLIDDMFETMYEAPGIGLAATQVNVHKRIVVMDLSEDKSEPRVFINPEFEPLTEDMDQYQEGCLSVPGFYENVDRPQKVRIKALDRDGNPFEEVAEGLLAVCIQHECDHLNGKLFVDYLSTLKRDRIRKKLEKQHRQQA

[2] = system: Streptococcus pneumoniae; experiment: Antimicrobial activity against Streptococcus pneumoniae ATCC 6305 after 48 hrs by microtiter plate assay; assay type: functional; settings: ATCC 6305, 48 h
[3] = system: Haemophilus influenzae; experiment: Antimicrobial activity against Haemophilus influenzae ATCC 51907 after 24 hrs by microtiter plate assay; assay type: functional; settings: ATCC 51907, 24 h
[4] = system: Moraxella catarrhalis; experiment: Antimicrobial activity against Moraxella catarrhalis ATCC 43617 after 48 hrs by microtiter plate assay; assay type: functional; settings: ATCC 43617, 48 h
[5] = system: Staphylococcus aureus; experiment: Antimicrobial activity against Staphylococcus aureus ATCC 6538p after 24 hrs by microtiter plate assay; assay type: functional

SMILES	IC50 [1] [nM]	MIC [2] [µg/mL]	MIC [3] [µg/mL]	MIC [4] [µg/mL]	MIC [5] [µg/mL]
CCCC[C@H](CN(O)C=O)C(=O)[C@@H](NC(=O)NC(C)C)C(C)C	16	0.4 (≈ 1.21 µM)	0.1 (≈ 0.304 µM)	0.8 (≈ 2.43 µM)	1.6 (≈ 4.86 µM)
CCCC[C@H](CN(O)C=O)C(=O)[C@@H](NC(=O)NC1CCCC1)C(C)C	10	1.6 (≈ 4.5 µM)	0.2 (≈ 0.563 µM)	0.1 (≈ 0.281 µM)	1.6 (≈ 4.5 µM)
CCCC[C@H](CN(O)C=O)C(=O)[C@@H](NC(=O)OC(C)(C)C)C(C)C	183	1.6 (≈ 4.65 µM)	1.6 (≈ 4.65 µM)	0.1 (≈ 0.29 µM)	12.5 (≈ 36.3 µM)
CCCC[C@H](CN(O)C=O)C(=O)[C@H](NC(=O)OC(C)(C)C)C(C)(C)C	603	6.3 (≈ 17.6 µM)	3.2 (≈ 8.93 µM)	0.1 (≈ 0.279 µM)	100 (≈ 279 µM)
CCCC[C@H](CN(O)C=O)C(=O)[C@@H](NC(=O)Nc1ccccn1)C(C)C	43	1.6 (≈ 4.39 µM)	0.1 (≈ 0.274 µM)	0.1 (≈ 0.274 µM)	0.8 (≈ 2.2 µM)
CCCC[C@H](CN(O)C=O)C(=O)[C@@H](NC(=O)c1ccccn1)C(C)C	117	0.2 (≈ 0.572 µM)	0.1 (≈ 0.286 µM)	0.1 (≈ 0.286 µM)	1.6 (≈ 4.58 µM)
CCCC[C@H](CN(O)C=O)C(=O)[C@@H](NC(=O)c1cccnc1)C(C)C	73	0.2 (≈ 0.572 µM)	0.1 (≈ 0.286 µM)	0.1 (≈ 0.286 µM)	0.8 (≈ 2.29 µM)
CCCC[C@H](CN(O)C=O)C(=O)[C@@H](NC(=O)c1cccc(F)c1)C(C)C	43	0.4 (≈ 1.09 µM)	0.2 (≈ 0.546 µM)	1.6 (≈ 4.37 µM)	1.6 (≈ 4.37 µM)
CCCC[C@H](CN(O)C=O)C(=O)[C@@H](NC(=O)C(C)C)C(C)C	60	0.8 (≈ 2.54 µM)	0.2 (≈ 0.636 µM)	1.6 (≈ 5.09 µM)	3.2 (≈ 10.2 µM)
CCCC[C@H](CN(O)C=O)C(=O)[C@@H](NC(=O)c1nccc2ccccc12)C(C)C	5	0.4 (≈ 1 µM)	0.4 (≈ 1 µM)	0.1 (≈ 0.25 µM)	6.4 (≈ 16 µM)
CCCC[C@H](CN(O)C=O)C(=O)[C@@H](NC(=O)c1ccncc1)C(C)C	52	0.4 (≈ 1.14 µM)	0.1 (≈ 0.286 µM)	0.1 (≈ 0.286 µM)	1.6 (≈ 4.58 µM)
CCCC[C@H](CN(O)C=O)C(=O)[C@@H](NC(=O)Nc1ccccc1OC)C(C)C	41	0.1 (≈ 0.254 µM)	0.2 (≈ 0.508 µM)	0.1 (≈ 0.254 µM)	0.8 (≈ 2.03 µM)
CCCC[C@H](CN(O)C=O)C(=O)[C@@H](NC(=O)c1ccccc1)C(C)C	51	3.2 (≈ 9.18 µM)	0.2 (≈ 0.574 µM)	0.4 (≈ 1.15 µM)	3.2 (≈ 9.18 µM)
CCCC[C@H](CN(O)C=O)C(=O)[C@H](C)NC(=O)OC(C)(C)C	330	3.2 (≈ 10.1 µM)	0.8 (≈ 2.53 µM)	1.6 (≈ 5.06 µM)	12.5 (≈ 39.5 µM)
COc1ccccc1NC(=O)N[C@@H](C(=O)N(CC(=O)NO)CC1CCCC1)C(C)(C)C	29	0.2 (≈ 0.46 µM)	0.2 (≈ 0.46 µM)	0.1 (≈ 0.23 µM)	50 (≈ 115 µM)
CCCC[C@H](CN(O)C=O)C(=O)[C@@H](NC(=O)Nc1ccccc1)C(C)C	49	0.4 (≈ 1.1 µM)	0.4 (≈ 1.1 µM)	0.1 (≈ 0.275 µM)	1.6 (≈ 4.4 µM)
CCCC[C@H](CN(O)C=O)C(=O)[C@@H](NC(=O)c1cccc(OC)c1)C(C)C	22	0.2 (≈ 0.528 µM)	0.2 (≈ 0.528 µM)	0.8 (≈ 2.11 µM)	0.8 (≈ 2.11 µM)
CCCC[C@H](CN(O)C=O)C(=O)[C@@H]1CCCN1C(=O)OC(C)(C)C	169	6.3 (≈ 18.4 µM)	0.4 (≈ 1.17 µM)	0.4 (≈ 1.17 µM)	12.5 (≈ 36.5 µM)
CCCC[C@H](CN(O)C=O)C(=O)[C@@H](NC(=O)Nc1ccccc1F)C(C)C	41	0.2 (≈ 0.524 µM)	0.1 (≈ 0.262 µM)	0.1 (≈ 0.262 µM)	0.4 (≈ 1.05 µM)
CCCC[C@H](CN(O)C=O)C(=O)[C@@H](NC(=O)c1ccc2ccccc2n1)C(C)C	8	0.1 (≈ 0.25 µM)	0.2 (≈ 0.501 µM)	0.1 (≈ 0.25 µM)	0.4 (≈ 1 µM)
